From patent US20070054804A1, “Use of fungicides for disinfecting cereal seed” (BAYER CROPSCIENCE AKTIENGESELLSCHAFT, priority 2003, published 2007)

Test system: Fusarium nivale
Experiment: Fusarium nivale test (wheat)/seed treatment
Format: in vivo
Conditions: seed dressing of infected wheat seed, evaluated three weeks after sowing, 0% = control, 100% = no infection
Protocol: Fusarium nivale Test (Wheat)/Seed Treatment The active compounds or the active compound combination are/is applied using commercially available liquid seed dressings of the individual active compounds or the active compound combination. For seed dressing, the infected seed is shaken with the seed dressing in question in a closed plastic container for 3 minutes. For each test, in two seed trays in each case 100 wheat corns are sown at a depth of 3 cm in sand and covered with a layer of fine particulate clay. The seed trays are then placed in a greenhouse at a temperature of about 10° C. and a relative atmospheric humidity of 95% and exposed to light for 15 hours per day. Three weeks after sowing, the plants are evaluated for symptoms. The efficacy is expressed in %. 0% means an efficacy which corresponds to that of the control, whereas an efficacy of 100% means that no infection is observed.

SMILES	Efficacy in % (5 g active compound per 100 kg of seed) [%]	Efficacy in % (3 g active compound per 100 kg of seed) [%]
OC(Cc1ccccc1Cl)(Cn1nc[nH]c1=S)C1(Cl)CC1 (centres unmarked) [prothioconazole, 2-[2-(1-chlorocyclopropyl)-3-(2-chlorophenyl)-2-hydroxypropyl]-2,4-dihydro[1,2,4]-triazole-3-thione]	57	–
CC(C)(C)C(O)(CCc1ccc(Cl)cc1)Cn1cncn1 (centres unmarked) [tebuconazole]	–	11
